Marks after values point to notes of the source that are not given here.
Experiments:
sC5b-9 = test: Complement activation in vitro (sC5b-9 levels); type: cell-based; settings: human cells contacted in vitro; for sC5b-9 levels relative to saline: in words
Outline: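 Human cells exposed in vitro to nanoparticle compositions, with the soluble terminal complement complex sC5b-9 measured as a marker of complement activation.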

hEPO mRNA [1] = test: hEPO expression after intravenous administration to rats; type: in vivo, rat; settings: for hEPO expression / hEPO expression 0.25 h / hEPO expression 0.5 h / hEPO expression 1 h / hEPO expression 2 h / hEPO expression 4 h / hEPO expression 8 h / hEPO expression 24 h / hEPO expression 48 h: rat; for Lipid/MC3 hEPO conc. ratio 0.2 mpk / Lipid/MC3 hEPO conc. ratio 2 mpk: rats; for Lipid/MC3 hEPO expression: 6 hours after administration
Outline: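 Rats dosed intravenously once with nanoparticle composition, 0.2 or 2.0 mpk, formulated by the standard MC3 method. Tail-vein blood sampled at 6 h or at time points from 0.25 to 48 h. hEPO measured by ELISA.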

[2] = Residual lipid levels in rat liver and spleen (UPLC-MS); type: in vivo; settings: for % Lipid Remaining in liver, 48 h: assuming 300 g rat and 15 g liver; for % remaining dose in liver, 48 h: 2.0 mpk; for % dose remaining Rat liver tissue, 48 h: Sprague Dawley rat liver 48 h after 2 mg/kg bolus dose mRNA
Outline: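 Rats received a single intravenous dose of lipid nanoparticle composition, and liver tissue was later collected to quantify residual lipid. Weighed tissue was homogenized in Milli-Q water (900 μL per 100 mg tissue) using an Omni probe homogenizer. 50 μL aliquots were mixed with 400 μL spiking solution, vortexed, centrifuged, and analyzed by UPLC on a C8 column with positive-mode ESI detection on a Sciex API5500 mass spectrometer.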

IP-10 = test: Cytokine induction in rats after intravenous administration; type: in vivo, rat; settings: for IP-10: rats, 2.0 mpk, 6 hours, hEPO nanoparticle compositions; for IP-10 induction: rat, 48 hours after administration
Method: The expression of hEPO and cytokine induction in rats intravenously administered a nanoparticle composition at a dose of 2.0 mpk was measured at 6 h.
Table 19A summarizes the hEPO expression, IP-10 induction, liver and spleen levels, and alanine aminotransferase (ALT) and aspartate aminotransferase (AST) measured upon intravenous administration of formulations including Compounds 48, 49, and 50 to rat at 0.2 and 2 mpk and hEPO mRNA. hEPO concentrations were measured 6 hours after administration, while cytokine induction and liver and spleen levels were measured 48 hours after administration. hEPO and IP-10 concentrations are presented in pg/ml, while liver levels are provided in ng/g. ALT and AST levels are presented in international units.

[3] = Chemical stability of lipids in ethanol (lipid purity); type: physicochemical
Method: Ester linkages were previously reported to trigger metabolism by esterases in vivo. (See Fukami, T. et al. Drug Metab. Pharmacokinet. 2012, 27, 466-477, the content of which is incorporated by reference herein in its entirety). […] (See Maier M. A., Mol. Ther. 2013, 21, 1570-1578, the content of which is incorporated herein in its entirety) First, the chemical stability of the lipids was evaluated by measuring ethanol stability at room temperature and 37° C. (Table 39). […] LNPs formed with compound 138 were larger, with a surface pKa>7. […] Removal of one ester function (compound 136) afforded LNPs with improved physiochemical characteristics and lower LNP surface pKa.

hEPO mRNA [4] = test: hEPO expression after subcutaneous administration to mice; type: in vivo, female CD-1 mice; settings: for Novel lipid/MC3 expression ratio, 6 hr. time point, s.c. hEPO 0.5 mpk: relative to MC3
Outline: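 Lipid nanoparticle formulations carrying hEPO or luciferase mRNA were given subcutaneously at 0.5 mpk to female CD-1 mice. Whole-body luminescence imaging was done at 3, 6 and 24 h. Liver, spleen and injection-site expression were assessed ex vivo at 24 h.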

[5] = Lipid clearance: lipid level in mouse liver tissue (LC-MS/MS); type: in vivo; settings: for % Dose Remaining in Liver 6 h: Table 3D
Method: Quantification of Lipid by LC-MS/MS: Liver samples were homogenized following addition of 19 eq. (w/v) of water (DF=20). Protein was precipitated and analyzed against calibration standards prepared in matching blank. Chromatographic separation and quantification was accomplished with a LC-MS/MS System. Samples were injected and separated via HPLC A triple-quadrupole MS/MS system operated in positive ion mode was used for signal detection.

[6] = rat, intravenous, 0.2 mpk, 48 hours, Table 19A
[7] = rat, intravenous, 2 mpk, 48 hours, Table 19A

CCCCCC/C=C\COC(=O)CCCCCCCN(CCO)CCCCCCCC(=O)OC(CCCCCCCC)CCCCCCCC [Compound 24, Heptadecan-9-yl (Z)-8_((2-hydroxyethyl) (8-(non-2-en-1-yloxy)-8-oxooctyl)amino)octanoate]
Fold increase in sC5b-9 levels versus saline (sC5b-9): 0.81
sC5b-9 levels relative to saline (sC5b-9): slightly decrease
hEPO expression (hEPO mRNA [1]; 6 h, 2 mpk, i.v.): 1.44e+07 pg/mL
Lipid/MC3 hEPO conc. ratio 0.2 mpk (hEPO mRNA [1]; intravenous, 0.2 mpk, 6 hours): 1.75
Lipid/MC3 hEPO conc. ratio 2 mpk (hEPO mRNA [1]; intravenous, 2 mpk, 6 hours): 1.01
% Lipid Remaining in liver, 48 h ([2]; rats, 2 mpk): 0.016%
% remaining dose in liver, 48 h ([2]; rats, intravenous): <1%
IP-10 (IP-10): 323.5 pg/mL

CCCCCCCCCCCOC(=O)CCCCCN(CCO)CCCCCCCC(=O)OC(CCCCCCCC)CCCCCCCC [Compound 25, Heptadecan-9-yl 8-((2-hydroxyethyl)(6-oxo-6-(undecyloxy)hexyl)amino)octanoate]
Fold increase in sC5b-9 levels versus saline (sC5b-9): 1.02
Lipid/MC3 hEPO expression (hEPO mRNA [1]; 0.2 mpk dose to rat): 2.41
Lipid/MC3 hEPO expression (hEPO mRNA [1]; 2 mpk dose to rat): 2.13
hEPO expression (hEPO mRNA [1]; 6 h, 2 mpk, i.v.): 3.05e+07 pg/mL
hEPO expression 0.25 h (hEPO mRNA [1]; intravenous, 0.2 mpk): 0 pg/mL
hEPO expression 0.5 h (hEPO mRNA [1]; intravenous, 0.2 mpk): 19553 pg/mL
hEPO expression 1 h (hEPO mRNA [1]; intravenous, 0.2 mpk): 434299 pg/mL
hEPO expression 2 h (hEPO mRNA [1]; intravenous, 0.2 mpk): 2042807 pg/mL
hEPO expression 4 h (hEPO mRNA [1]; intravenous, 0.2 mpk): 3176560 pg/mL
hEPO expression 8 h (hEPO mRNA [1]; intravenous, 0.2 mpk): 2631633 pg/mL
hEPO expression 24 h (hEPO mRNA [1]; intravenous, 0.2 mpk): 869374 pg/mL
hEPO expression 48 h (hEPO mRNA [1]; intravenous, 0.2 mpk): 103089 pg/mL
Lipid/MC3 hEPO conc. ratio 0.2 mpk (hEPO mRNA [1]; intravenous, 0.2 mpk, 6 hours): 2.41
Lipid/MC3 hEPO conc. ratio 2 mpk (hEPO mRNA [1]; intravenous, 2 mpk, 6 hours): 2.13
Lipid Purity ([3]; t = 0): 95.58%
Lipid Purity ([3]; t = 96 h, 25° C.): 96.23%
Lipid Purity ([3]; t = 96 h, 37° C.): 96.13%
% dose remaining Rat liver tissue, 48 h [2]: 1.3^e %
% lipid remaining in liver after 48 hours ([2]; liver, 48 hours): 1.32%
% Lipid Remaining in liver, 48 h ([2]; rats, 2 mpk): 1.32%
% remaining dose in liver, 48 h ([2]; rats, intravenous): 1.3%
IP-10 (IP-10): 533.5 pg/mL
Novel lipid/MC3 expression ratio, 6 hr. time point, s.c. hEPO 0.5 mpk (hEPO mRNA [4]): 5.43

CCCCCCCCCOC(=O)CCCCCCCN(CCO)CCCCCCCOC(=O)C(CCCCCCCC)CCCCCCCC [Compound 30, 7-((2-Hydroxyethyl)(8-(nonyloxy)-8-oxooctyl)amino)heptyl 2-octyldecanoate]
Fold increase in sC5b-9 levels versus saline (sC5b-9): 0.94
sC5b-9 levels relative to saline (sC5b-9): slightly decrease
hEPO expression (hEPO mRNA [1]; 6 h, 2 mpk, i.v.): 1.63e+07 pg/mL
Lipid/MC3 hEPO conc. ratio 0.2 mpk (hEPO mRNA [1]; intravenous, 0.2 mpk, 6 hours): 1.87
Lipid/MC3 hEPO conc. ratio 2 mpk (hEPO mRNA [1]; intravenous, 2 mpk, 6 hours): 1.14
% Lipid Remaining in liver, 48 h ([2]; rats, 2 mpk): <0.01%
% remaining dose in liver, 48 h ([2]; rats, intravenous): <1%
IP-10 (IP-10): 214.5 pg/mL
hEPO expression Lipid/Compound 18 ratio, 6 hr. (hEPO mRNA [4]; 0.5 mpk, 6 hr.): 1.35
hEPO expression Lipid/MC3 ratio, 6 hr. (hEPO mRNA [4]; 0.5 mpk, 6 hr.): 6.53
hEPO expression Lipid/Compound 18 ratio, AUC (hEPO mRNA [4]; 0.5 mpk, AUC): 1.27
hEPO expression Lipid/MC3 ratio, AUC (hEPO mRNA [4]; 0.5 mpk, AUC): 6.38

CCCCC/C=C\C/C=C\CCCCCCCCC(CCCCCCCC/C=C\C/C=C\CCCCC)OC(=O)CCCN(C)C [MC3, DLin-MC3-DMA, reference compound]
% dose remaining Mouse liver tissue, 24 h ([5]; CD-1 mouse liver 24 h after 0.5 mg/kg bolus dose mRNA, n = 5 ± S.D.): 71 ± 27%
% Dose Remaining in Liver 6 h ([5]; second column (head also says 6 h), intravenous): 54%
% Dose Remaining in Liver 6 h ([5]; intravenous): 80%
Mouse liver tissue level (ng/g) 6 h ([5]; Table 3E, intravenous, 6 h): 85400 ng/g
Mouse liver tissue level (ng/g) 24 h ([5]; Table 3E, intravenous, 24 h): 67433 ng/g
% Remaining dose at 6 h ([5]; Table 3E, mouse liver, 6 h): >98%
% Remaining dose at 24 h ([5]; Table 3E, mouse liver, 24 h): 79.7%
Fold increase in sC5b-9 levels versus saline (sC5b-9): 0.73
Lipid/MC3 hEPO expression (hEPO mRNA [1]; 0.2 mpk dose to rat): 1
Lipid/MC3 hEPO expression (hEPO mRNA [1]; 2 mpk dose to rat): 1
AUC (hEPO) (hEPO mRNA [1]; Table 19B): 3.46e+07 pg·h/mL
[hEPO] (hEPO mRNA [1]; Table 19B, species, dose and time not given): 14800 pg/mL
hEPO expression (hEPO mRNA [1]; 6 h, 2 mpk, i.v.): 1.33e+07 pg/mL
hEPO expression 0.25 h (hEPO mRNA [1]; intravenous, 0.2 mpk): 0 pg/mL
hEPO expression 0.5 h (hEPO mRNA [1]; intravenous, 0.2 mpk): 42457 pg/mL
hEPO expression 1 h (hEPO mRNA [1]; intravenous, 0.2 mpk): 93720 pg/mL
hEPO expression 2 h (hEPO mRNA [1]; intravenous, 0.2 mpk): 524093 pg/mL
hEPO expression 4 h (hEPO mRNA [1]; intravenous, 0.2 mpk): 601307 pg/mL
hEPO expression (hEPO mRNA [1]; intravenous, 0.2 mpk, 6 hours): 7.68e+06 pg/mL
hEPO expression 8 h (hEPO mRNA [1]; intravenous, 0.2 mpk): 1536833 pg/mL
hEPO expression 24 h (hEPO mRNA [1]; intravenous, 0.2 mpk): 703619 pg/mL
hEPO expression 48 h (hEPO mRNA [1]; intravenous, 0.2 mpk): 64687 pg/mL
hEPO expression (hEPO mRNA [1]; intravenous, 2 mpk, 6 hours): 9.29e+06 pg/mL
Lipid/MC3 hEPO conc. ratio 0.2 mpk (hEPO mRNA [1]; intravenous, 0.2 mpk, 6 hours): 1
Lipid/MC3 hEPO conc. ratio 2 mpk (hEPO mRNA [1]; intravenous, 2 mpk, 6 hours): 1
% dose remaining Rat liver tissue, 48 h [2]: 61^e %
% dose remaining, liver, 24 h ([2]; Table 19B, liver, 24 h): 44%
% lipid remaining in liver after 48 hours ([2]; liver, 48 hours): 87%
Liver level [2, 6]: 11300 ng/g
Spleen level [2, 6]: 0.74 ng/g
Liver level [2, 7]: 140520 ng/g
Spleen level [2, 7]: 0.65 ng/g
Liver level ([2]; rats, 0.2 mpk, after 48 h): 25033 ng/g
Spleen level ([2]; rats, 0.2 mpk, after 48 h): 9440 ng/g
% Lipid Remaining in liver, 48 h ([2]; rats, 2 mpk): 87%
Liver level ([2]; rats, 2 mpk, after 48 h): 285333 ng/g
Spleen level ([2]; rats, 2 mpk, after 48 h): 129000 ng/g
lipid remained in the liver after 48 hours ([2]; rats, i.v., 0.2 mpk or 2.0 mpk): greater than 60%
% remaining dose in liver, 48 h ([2]; rats, intravenous): 74%
IP-10 induction (IP-10; 0.2 mpk): 2 pg/mL
IP-10 induction (IP-10; 2 mpk): 596 pg/mL
IP-10 (IP-10): 688.3 pg/mL

CCCCCCCCC(CC)OC(=O)CCCCCCCN(CCO)CCCCCCCC(=O)OC(CCCCCCCC)CCCCCCCC (stereo not drawn) [Compound 49, heptadecan-9-yl 8-((2-hydroxyethyl)(8-oxo-8-(undecan-3-yloxy)octyl)amino)octanoate]
hEPO expression (hEPO mRNA [1]; intravenous, 0.2 mpk, 6 hours): 3.17e+06 pg/mL
hEPO expression (hEPO mRNA [1]; intravenous, 2 mpk, 6 hours): 3.04e+07 pg/mL
Lipid/MC3 hEPO conc. ratio 0.2 mpk (hEPO mRNA [1]; intravenous, 0.2 mpk, 6 hours): 4.13
Lipid/MC3 hEPO conc. ratio 2 mpk (hEPO mRNA [1]; intravenous, 2 mpk, 6 hours): 3.28
% Lipid Remaining in liver, 48 h ([2]; rats, 2 mpk): 12.6%
IP-10 induction (IP-10; 0.2 mpk): 66 pg/mL
IP-10 induction (IP-10; 2 mpk): 932 pg/mL
Novel lipid/MC3 expression ratio, 6 hr. time point, s.c. hEPO 0.5 mpk (hEPO mRNA [4]): 8.01
